Results on 23 molecules are retold here after PubChem BioAssay AID330 (DTP/NCI, 2004).

The test system of the assay is P388 leukemia ip, CD2F1 mice, survival T/C. The assay is described as follows: NCI In Vivo Anticancer Drug Screen. Data for tumor model P388 Leukemia (intraperitoneal) in CD2F1 (CDF1) mice. The note with it: endpoint: median survival time, higher = longer survival. In short, it runs like this: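 Mice carrying the transplanted tumor received test compound or vehicle. Survival was recorded in each group, and the value is the treated-group measurement divided by that of the vehicle-treated control group.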

The mark [1] stands for this setting: dose: 50.0 mg/kg/injection, schedule: Q01DX005 (ip), vehicle: Klucel (hydroxypropylcellulose) (HPC).
Setting [2] is: dose: 100.0 mg/kg/injection, schedule: Q01DX005 (ip), vehicle: Klucel (hydroxypropylcellulose) (HPC).
Where [3] appears, read: dose: 50.0 mg/kg/injection, schedule: Q01DX005 (ip), vehicle: saline.
[4] abbreviates: dose: 100.0 mg/kg/injection, schedule: Q01DX005 (ip), vehicle: saline.
Where [5] appears, read: dose: 25.0 mg/kg/injection, schedule: Q01DX009 (ip), vehicle: saline with Tween-80.
Where [6] appears, read: dose: 60.0 mg/kg/injection, schedule: Q01DX005 (ip), vehicle: saline with Tween-80.
The mark [7] stands for this setting: dose: 120.0 mg/kg/injection, schedule: Q01DX005 (ip), vehicle: saline with Tween-80.
[8] abbreviates: dose: 240.0 mg/kg/injection, schedule: Q01DX005 (ip), vehicle: saline with Tween-80.

Several values for one entry are separate records, joined by “and”; a condition that tells them apart may be missing. Equal values may be shown once. Toxic doses and inconclusive results are not listed.

As for `CC1CC(N=Cc2ccc3c(c2)OCO3)CC(C)(C)C1` (centres undefined), the T/C reads like this: (dose: 50.0 mg/kg/injection, schedule: Q01DX005 (ip), vehicle: saline with Tween-80) 103 % of control; (dose: 100.0 mg/kg/injection, schedule: Q01DX005 (ip), vehicle: saline with Tween-80) 96 % of control; (dose: 200.0 mg/kg/injection, schedule: Q01DX005 (ip), vehicle: saline with Tween-80) 97 % of control.

As to `CC([C@H](c1ccccc1)C1CCC(C(N)=O)(N2CCOCC2)C1)[N+](=O)[O-]` (some centres undefined), the T/C (dose: 60.0 mg/kg/injection, schedule: Q01DX005 (ip), vehicle: Klucel (hydroxypropylcellulose) (HPC)) was 99 % of control; the T/C (dose: 120.0 mg/kg/injection, schedule: Q01DX005 (ip), vehicle: Klucel (hydroxypropylcellulose) (HPC)) is 99 % of control; the T/C (dose: 240.0 mg/kg/injection, schedule: Q01DX005 (ip), vehicle: Klucel (hydroxypropylcellulose) (HPC)) was 93 % of control.

Regarding `C[CH2][Ge]([CH2]C)[CH2]C.C[CH2][Ge]([CH2]C)[O]C(C)=O`, the T/C by setting is: (dose: 50.0 mg/kg/injection, schedule: Q01DX009 (ip), vehicle: saline) 95 % of control; (dose: 100.0 mg/kg/injection, schedule: Q01DX009 (ip), vehicle: saline) 98 % of control; (dose: 200.0 mg/kg/injection, schedule: Q01DX009 (ip), vehicle: saline) 96 % of control.

Consider `CCN(CC)CCOC(=O)Cc1cccc2c(=O)cc(-c3ccc(OC)cc3)oc12`, for which the T/C (dose: 12.5 mg/kg/injection, schedule: Q01DX005 (ip), vehicle: Klucel (hydroxypropylcellulose) (HPC)) is 113 % of control; the T/C (dose: 25.0 mg/kg/injection, schedule: Q01DX005 (ip), vehicle: Klucel (hydroxypropylcellulose) (HPC)) is 113 % of control; the T/C under setting [1] was 98 % of control; the T/C under setting [2] is 121 % of control.

In the case of `CN(C)CCNC1c2ccccc2CCc2ccccc21`, the T/C reads like this: under setting [3], 104 % of control; under setting [4], 100 % of control.

Regarding `CC(=O)c1cc(I)c(O)c2ncccc12`, the T/C (dose: 6.25 mg/kg/injection, schedule: Q01DX009 (ip), vehicle: saline with Tween-80) was 97 % of control; the T/C (dose: 12.5 mg/kg/injection, schedule: Q01DX009 (ip), vehicle: saline with Tween-80) was 94 % of control; the T/C under setting [5] is 98 % of control.

Regarding `CCC(c1ccc(CN(C)C)c(O)c1)C(CC)c1ccc(CN(C)C)c(O)c1` (centres undefined), the T/C under setting [6] was 93 % of control, the T/C under setting [7] is 91 % of control and the T/C under setting [8] is 102 % of control.

Take `CS/C(=N\N=C(/C)c1ccccn1)N1CCN(c2ccccn2)CC1`: the T/C runs as follows: (dose: 100.0 mg/kg/injection, schedule: Q04DX003 (ip), vehicle: saline with Tween-80) 98 % of control; (dose: 200.0 mg/kg/injection, schedule: Q04DX003 (ip), vehicle: saline with Tween-80) 99 % of control; (dose: 400.0 mg/kg/injection, schedule: Q04DX003 (ip), vehicle: saline with Tween-80) 96 % of control.

Take `Cl[C](Cl)(Cl)[Hg][c]1ccccc1`: the T/C was 98 % of control (dose: 1.5 mg/kg/injection, schedule: Q01DX009 (ip), vehicle: saline with Tween-80); 99 % of control (dose: 3.0 mg/kg/injection, schedule: Q01DX009 (ip), vehicle: saline with Tween-80); 114 % of control (dose: 6.0 mg/kg/injection, schedule: Q01DX009 (ip), vehicle: saline with Tween-80); 89 % of control (dose: 12.0 mg/kg/injection, schedule: Q01DX009 (ip), vehicle: saline with Tween-80).

For the molecule `CC1C(c2ccccc2)=NN(C)c2ccccc21` (centres undefined), the T/C runs as follows: under setting [6], 97 % of control; under setting [7], 102 % of control; under setting [8], 90 % of control.

In the case of `Cc1c2cccc(F)c2c[n+]2ccccc12`, the T/C is, setting by setting: (dose: 6.25 mg/kg/injection, schedule: Q01DX009 (ip), vehicle: Klucel (hydroxypropylcellulose) (HPC)) 96 % of control; (dose: 12.5 mg/kg/injection, schedule: Q01DX009 (ip), vehicle: Klucel (hydroxypropylcellulose) (HPC)) 103 % of control; (dose: 25.0 mg/kg/injection, schedule: Q01DX009 (ip), vehicle: Klucel (hydroxypropylcellulose) (HPC)) 102 % of control and 113 % of control.

Regarding `N=C(N)c1ccc(OCCCOc2ccc(C(=N)N)cc2)cc1`, the T/C is 108 % of control (dose: 6.25 mg/kg/injection, schedule: Q01DX005 (ip), vehicle: saline); 117 % of control (dose: 12.5 mg/kg/injection, schedule: Q01DX005 (ip), vehicle: saline); 115 % of control (dose: 25.0 mg/kg/injection, schedule: Q01DX005 (ip), vehicle: saline).

As to `C/C(=N\NC(=S)N(C)C1CCCCC1)c1ccc2ccccc2n1`, the T/C reads like this: (dose: 6.25 mg/kg/injection, schedule: Q01DX005 (ip), vehicle: saline with Tween-80) 103 % of control and 114 % of control; (dose: 12.5 mg/kg/injection, schedule: Q01DX005 (ip), vehicle: saline with Tween-80) 111 % of control and 115 % of control; (dose: 25.0 mg/kg/injection, schedule: Q01DX005 (ip), vehicle: saline with Tween-80) 150 % of control.

As to `NC(=O)C1CCCN(C2OC(COP(=O)(O)OP(=O)(O)OCC3OC(n4nnc5c(=O)[nH]c(N)nc54)C(O)C3O)C(O)C2O)C1` (centres undefined), the T/C is, setting by setting: under setting [3], 115 % of control; under setting [4], 98 % of control; (dose: 200.0 mg/kg/injection, schedule: Q01DX005 (ip), vehicle: saline) 87 % of control.

`COc1ccc2[nH]c3c(c2c1)C(=O)c1ccncc1C3=O`: the T/C (dose: 37.5 mg/kg/injection, schedule: Q04DX002 (ip), vehicle: Klucel (hydroxypropylcellulose) (HPC)) is 87 % of control and the T/C (dose: 75.0 mg/kg/injection, schedule: Q04DX002 (ip), vehicle: Klucel (hydroxypropylcellulose) (HPC)) is 91 % of control.

For `C[Si](C)(C)CC[Si]12OCCN(CCO1)C1CCCCC1O2` (centres undefined), the T/C under setting [1] was 93 % of control; the T/C under setting [2] was 101 % of control; the T/C (dose: 200.0 mg/kg/injection, schedule: Q01DX005 (ip), vehicle: Klucel (hydroxypropylcellulose) (HPC)) is 97 % of control.

As to `COC(=O)CSc1nnc(CSc2ccc(Cl)cc2)n1-c1ccccc1`, the T/C was 93 % of control under setting [6], 92 % of control under setting [7] and 96 % of control under setting [8].

On to `Clc1ccc(-c2cc3cc4c(cc3[nH]2)Oc2ccccc2O4)cc1`, for which the T/C (dose: 17.5 mg/kg/injection, schedule: Q01DX009 (ip), vehicle: Klucel (hydroxypropylcellulose) (HPC)) is 107 % of control; the T/C (dose: 35.0 mg/kg/injection, schedule: Q01DX009 (ip), vehicle: Klucel (hydroxypropylcellulose) (HPC)) was 103 % of control; the T/C (dose: 70.0 mg/kg/injection, schedule: Q01DX009 (ip), vehicle: Klucel (hydroxypropylcellulose) (HPC)) was 103 % of control.

In the case of `O=NNc1ncc(Br)cc1Br`, the T/C reads like this: (dose: 1.56 mg/kg/injection, schedule: Q01DX009 (ip), vehicle: water) 100 % of control; (dose: 3.12 mg/kg/injection, schedule: Q01DX009 (ip), vehicle: water) 99 % of control and 107 % of control; (dose: 6.25 mg/kg/injection, schedule: Q01DX009 (ip), vehicle: water) 107 % of control and 110 % of control; (dose: 12.5 mg/kg/injection, schedule: Q01DX005 (ip), vehicle: water) 119 % of control and 122 % of control; (dose: 12.5 mg/kg/injection, schedule: Q01DX009 (ip), vehicle: water) 122 % of control; (dose: 25.0 mg/kg/injection, schedule: Q01DX009 (ip), vehicle: water) 122 % of control. Also, the T/C is 154 % of control and 165 % of control (dose: 50.0 mg/kg/injection, schedule: Q01DX005 (ip), vehicle: water); 175 % of control and 190 % of control and 206 % of control (dose: 100.0 mg/kg/injection, schedule: Q01DX005 (ip), vehicle: water).

Take `Cc1cccc(Nc2c3c(nc4ccccc24)CCCCC3)c1`: the T/C was 98 % of control under setting [6], 90 % of control under setting [7] and 91 % of control under setting [8].

Regarding `C/C(=N\Nc1ccc([N+](=O)[O-])cc1[N+](=O)[O-])C1CC1`, the T/C runs as follows: under setting [5], 117 % of control; (dose: 50.0 mg/kg/injection, schedule: Q01DX009 (ip), vehicle: saline with Tween-80) 106 % of control; (dose: 100.0 mg/kg/injection, schedule: Q01DX009 (ip), vehicle: saline with Tween-80) 108 % of control; (dose: 200.0 mg/kg/injection, schedule: Q01DX009 (ip), vehicle: saline with Tween-80) 109 % of control.

For the molecule `CCOC(=O)C1=C(Nc2ccc(Cl)cc2)C(=O)N(C(C)(C)C)C1`, the T/C runs as follows: under setting [6], 111 % of control; under setting [7], 108 % of control; under setting [8], 109 % of control.

Take `COCc1nnc2c(N)nccn12`: the T/C reads like this: (dose: 100.0 mg/kg/injection, schedule: Q01DX001 (ip), vehicle: Klucel (hydroxypropylcellulose) (HPC)) 99 % of control; (dose: 200.0 mg/kg/injection, schedule: Q01DX001 (ip), vehicle: Klucel (hydroxypropylcellulose) (HPC)) 93 % of control.
